Reference: the supplement of paper PMC10307832

Columns and labels:
Experiment in all cases: relative viability (nuclei count vs DMSO), 5 days (fraction); higher = more cells survive
EKVX = system: EKVX
Summary of the method: (§1)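 Nuclei were stained with Hoechst during a one-step fixation (final 0.05% Triton X-100, 1% formaldehyde, 1 ug/ml Hoechst) carried out 5 days after dosing, then counted on 4× images. The cells, lung cancer lines in 1536-well plates, had been dosed by pin tool the day after seeding with one drug alone or a fixed anchor-drug dose plus five library-drug doses (not always all listed) in √10 steps. Relative viability is the nuclei count in treated wells divided by that in vehicle wells, and each value is the median of duplicate plates.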

NCI-H661 = system: NCI-H661
Summary of the method: as §1

201T = system: 201T
Summary of the method: as §1

CAL-12T = system: CAL-12T
Summary of the method: as §1

NCI-H1666 = system: NCI-H1666
Summary of the method: as §1

NCI-H2170 = system: NCI-H2170
Summary of the method: as §1

SW 900 = system: SW 900
Summary of the method: as §1

BEN = system: BEN
Summary of the method: as §1

LOU-NH91 = system: LOU-NH91
Summary of the method: as §1

HARA = system: HARA
Summary of the method: as §1

NCI-H460 = conditions: first compound 0.0002 µM
Summary of the method: as §1

## CC(=O)O[C@@]12CO[C@@H]1C[C@H](O)[C@@]1(C)C(=O)[C@H](O)C3=C(C)[C@@H](OC(=O)[C@H](O)[C@@H](NC(=O)OC(C)(C)C)c4ccccc4)C[C@@](O)([C@@H](OC(=O)c4ccccc4)[C@H]21)C3(C)C [Docetaxel] + CCNC(=O)c1noc(-c2cc(C(C)C)c(O)cc2O)c1-c1ccc(CN2CCOCC2)cc1 [Luminespib] (partner 0.01 µM)
EKVX; first compound 0.0002 µM
  relative viability: 0.85
EKVX; first compound 0.000632 µM
  relative viability: 0.795
EKVX; first compound 0.002 µM
  relative viability: 0.45
EKVX; first compound 0.006325 µM
  relative viability: 0.305
EKVX; first compound 0.02 µM
  relative viability: 0.161
NCI-H661; first compound 0.0002 µM
  relative viability: 0.782
NCI-H661; first compound 0.000632 µM
  relative viability: 0.933
NCI-H661; first compound 0.002 µM
  relative viability: 0.707
NCI-H661; first compound 0.006325 µM
  relative viability: 0.432
NCI-H661; first compound 0.02 µM
  relative viability: 0.323
201T; first compound 0.0002 µM
  relative viability: 1.08
201T; first compound 0.000632 µM
  relative viability: 0.907
201T; first compound 0.002 µM
  relative viability: 0.8
201T; first compound 0.006325 µM
  relative viability: 0.485
201T; first compound 0.02 µM
  relative viability: 0.302
CAL-12T; first compound 0.0002 µM
  relative viability: 0.413
CAL-12T; first compound 0.000632 µM
  relative viability: 0.252
CAL-12T; first compound 0.002 µM
  relative viability: 0.199
CAL-12T; first compound 0.006325 µM
  relative viability: 0.168
CAL-12T; first compound 0.02 µM
  relative viability: 0.136
NCI-H1666; first compound 0.0002 µM
  relative viability: 0.943
NCI-H1666; first compound 0.000632 µM
  relative viability: 0.776
NCI-H1666; first compound 0.002 µM
  relative viability: 0.623
NCI-H1666; first compound 0.006325 µM
  relative viability: 0.512
NCI-H1666; first compound 0.02 µM
  relative viability: 0.374
NCI-H2170; first compound 0.0002 µM
  relative viability: 0.726
NCI-H2170; first compound 0.000632 µM
  relative viability: 0.704
NCI-H2170; first compound 0.002 µM
  relative viability: 0.451
NCI-H2170; first compound 0.006325 µM
  relative viability: 0.261
NCI-H2170; first compound 0.02 µM
  relative viability: 0.148
SW 900; first compound 0.0002 µM
  relative viability: 0.185
SW 900; first compound 0.000632 µM
  relative viability: 0.182
SW 900; first compound 0.002 µM
  relative viability: 0.174
SW 900; first compound 0.006325 µM
  relative viability: 0.186
SW 900; first compound 0.02 µM
  relative viability: 0.167
BEN; first compound 0.0002 µM
  relative viability: 0.0838
BEN; first compound 0.000632 µM
  relative viability: 0.377
BEN; first compound 0.002 µM
  relative viability: 0.373
BEN; first compound 0.006325 µM
  relative viability: 0.172
BEN; first compound 0.02 µM
  relative viability: 0.116
LOU-NH91; first compound 0.0002 µM
  relative viability: 0.299
LOU-NH91; first compound 0.000632 µM
  relative viability: 0.384
LOU-NH91; first compound 0.002 µM
  relative viability: 0.299
LOU-NH91; first compound 0.006325 µM
  relative viability: 0.266
LOU-NH91; first compound 0.02 µM
  relative viability: 0.212
HARA; first compound 0.0002 µM
  relative viability: 0.46
HARA; first compound 0.000632 µM
  relative viability: 0.124
HARA; first compound 0.002 µM
  relative viability: 0.0629
HARA; first compound 0.006325 µM
  relative viability: 0.0587
HARA; first compound 0.02 µM
  relative viability: 0.0441
NCI-H460
  relative viability: 0.032
